We go through seven compounds from US10167300B2, “Metalloenzyme inhibitor compounds as fungicides” (priority 2014, dated 2019).

Where two headings read alike, the source gives them in different places.

The subject of data set [1] is Mycosphaerella graminicola; Anamorph: Septoria tritici; Bayer Code SEPTTR (standard laboratory isolate, SI SEPTTR). Put plainly: Type A (high volume) assay, leaf blotch of wheat, standard laboratory SEPTTR isolate (SI SEPTTR). Conditions: Zymoseptoria tritici, standard laboratory isolate, high volume, 50 ppm, wheat (Yuma). The class given is in vivo, Mycosphaerella graminicola on wheat plants (variety Yuma). The gist of the method:
(§1)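 Wheat seedlings (Yuma, first leaf emerged) sprayed with acetone/Triton X-100 solutions (Type A) or 10% EC diluted in 0.1% Trycol at 200 L/ha (Type B), inoculated before or after spraying. Inoculated plants held 3 days at 20 °C, 100% RH, then greenhouse; % disease control from severity versus untreated plants.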

Data set [2] concerns Mycosphaerella graminicola; Anamorph: Septoria tritici; Bayer Code SEPTTR (field isolate collected from Wellsbourne, England in 2012, FI SEPTTR). Briefly: Type B (low volume, EC formulation, track sprayer 200 L/ha) assay, leaf blotch of wheat, SEPTTR field isolate (FI SEPTTR). The class given is in vivo, Mycosphaerella graminicola on wheat plants (variety Yuma). Conditions: field isolate, low volume EC, 100 g/ha, wheat (Yuma); for Disease Control, FI SEPTTR Type B Assay (100 g/ha) 3 DC: 3 Day Curative; for Disease Control, FI SEPTTR Type B Assay (100 g/ha) 3 DP: 3 Day Protectant. The gist of the method: as §1

For data set [3], the system named is Mycosphaerella graminicola; Anamorph: Septoria tritici; Bayer Code SEPTTR (standard laboratory isolate, SI SEPTTR). Briefly: Type B (low volume, EC formulation, track sprayer 200 L/ha) assay, leaf blotch of wheat, standard laboratory SEPTTR isolate (SI SEPTTR). It counts as in vivo, Mycosphaerella graminicola on wheat plants (variety Yuma). The settings on record: Zymoseptoria tritici, 72 h, standard laboratory isolate, low volume EC, 100 g/ha, wheat (Yuma). The gist of the method:
as §1

Data set [4] can be described thus: Type B (low volume, EC formulation, track sprayer 200 L/ha) assay, leaf blotch of wheat, SEPTTR field isolate (FI SEPTTR). It counts as in vivo, Mycosphaerella graminicola on wheat plants (variety Yuma). Conditions: Zymoseptoria tritici, 72 h, field isolate, low volume EC, 100 g/ha, wheat (Yuma). The method in brief:
as §1

Where [5] appears, read: 24 h, 1 Day Protectant, read-out: Disease Control, SI SEPTTR Type A Assay (50 ppm) 1 DP.
Where [6] appears, read: 3 Day Curative, read-out: Disease Control, SI SEPTTR Type B Assay (100 g/ha) 3 DC.
The mark [7] stands for this setting: 3 Day Protectant, read-out: Disease Control, SI SEPTTR Type B Assay (100 g/ha) 3 DP.
Setting [8] is: 3 Day Curative, read-out: Disease Control, FI SEPTTR Type B Assay (100 g/ha) 3 DC.
The mark [9] stands for this setting: 3 Day Protectant, read-out: Disease Control, FI SEPTTR Type B Assay (100 g/ha) 3 DP.

What is called melting point is the temperature of the solid-liquid transition. `CC(O)(Cc1cncnc1)c1ccc(-c2ccc(Cl)cc2)cn1` (stereo not drawn) [Compound 25, 2-[5-(4-chlorophenyl)-2-pyridyl]-1-pyrimidin-5-yl-propan-2-ol] returned a melting point of 150 to 155 °C. Also, the pest or weed control at 50 ppm in data set [1] (setting [5]) lay in the range of 40 to 59%. Further, the pest or weed control at 50 ppm in data set [1] (72 h, 3 Day Curative, read-out: Disease Control, SI SEPTTR Type A Assay (50 ppm) 3 DC) fell in the range of 80 to 100%.
Take `CC(C)(C)C(O)(Cc1cncnc1)c1ccc(-c2ccc(SC(F)(F)F)cc2)cn1` (stereo not drawn) [Compound 231]: in data set [2], the “Disease Control, FI SEPTTR Type B Assay (100 g/ha) 3 DC” value was “D (<40)” and the “Disease Control, FI SEPTTR Type B Assay (100 g/ha) 3 DP” value is reported as “B (60-79)”.
On the same counts, the results for `CCOC(CC)(c1cncnc1)c1ccc(-c2ccc(OC(F)(F)F)cc2F)cn1` (stereo not drawn) [Compound 193] are “D (<40)” and “B (60-79)”.
On to `CC(C)(C)C(O)(c1ccc(-c2ccc(OC(F)(F)F)cc2)cn1)c1cncs1` (stereo not drawn) [Compound 84], for which the pest or weed control at 100 g/ha is 80 to 100% in data set [3] (setting [6]), 80 to 100% in data set [3] (setting [7]), 60 to 79% in data set [4] (setting [8]) and 60 to 79% in data set [4] (setting [9]). In data set [1] (setting [5]), the pest or weed control at 50 ppm lay in the range of 80 to 100%.
Take `CC(C)(C)C(O)(c1cncnc1)c1ccc(-c2ccccc2)cn1` (stereo not drawn) [Compound 114]: the pest or weed control at 100 g/ha in data set [3] (setting [6]) fell in the range of 80 to 100%; in data set [3] (setting [7]) it was 80 to 100%; in data set [4] (setting [8]) it was 80 to 100%; in data set [4] (setting [9]), 60 to 79%. Besides, in data set [1] (setting [5]), the pest or weed control at 50 ppm lay within 60 to 79%.
`OC(Cc1ccc(Cl)cc1F)(c1cccnc1)c1ccc(-c2ccc(OC(F)(F)F)cc2)cn1` (stereo not drawn) [Compound 90]: the pest or weed control at 100 g/ha in data set [3] (setting [6]), in data set [3] (setting [7]), in data set [4] (setting [8]) and in data set [4] (setting [9]) was 80 to 100% each time. Besides, the pest or weed control at 50 ppm in data set [1] (setting [5]) is 80 to 100%.
As for `CC(C)(C)C(O)(c1cccnc1)c1ccc(-c2ccc(OC(F)(F)F)cc2)cn1` (stereo not drawn) [Compound 80], the pest or weed control at 100 g/ha in data set [3] (setting [6]), in data set [3] (setting [7]), in data set [4] (setting [8]) and in data set [4] (setting [9]) was 80 to 100% in each case. The pest or weed control at 50 ppm in data set [1] (setting [5]) was in the range of 80 to 100%.
